The values below come from US20260022142A1, “MACROCYCLIC IMMUNOMODULATORS” (Bristol-Myers Squibb Company, priority 2022, published 2026).

SMILES strings stand for the structures. Numbered stars: 1 amine (or outer) side, 2 acyl side, 3 side chain; on linkers, the order of the positions; unused ones are H or OH. Bridge positions count the residues as written; N and C are the ends. Square brackets hold non-standard residues; d marks the D form. Peptide text beside a SMILES is read from it. * marks the point of attachment. ξ: configuration not given here. Phe(4-COOH) = N[C@@H](Cc1ccc(C(=O)O)cc1)C(=O)O; Bip = N[C@@H](Cc1ccc(-c2ccccc2)cc1)C(=O)O; Phe(3-Me) = Cc1cccc(C[C@H](N)C(=O)O)c1; Phe(4-F) = N[C@@H](Cc1ccc(F)cc1)C(=O)O; γGlu = O=C(O)[C@H](CCC(=O)[*:2])N[*:1]; Val(3-OH) = CC(C)(O)[C@H](N)C(=O)O; Cha = N[C@@H](CC1CCCCC1)C(=O)O; Cit = NC(=O)NCCC[C@H](N)C(=O)O; Thr(3ξ) = CC(O)[C@H](N)C(=O)O; Carboxymethyl = O=C(O)C*; Orn = NCCC[C@H](N)C(=O)O; Aun = NCCCCCCCCCCC(=O)O; Dab = NCC[C@H](N)C(=O)O; Dap = NC[C@H](N)C(=O)O; AEEA = NCCOCCOCC(=O)O

T1 sequence (Q15116 25-288): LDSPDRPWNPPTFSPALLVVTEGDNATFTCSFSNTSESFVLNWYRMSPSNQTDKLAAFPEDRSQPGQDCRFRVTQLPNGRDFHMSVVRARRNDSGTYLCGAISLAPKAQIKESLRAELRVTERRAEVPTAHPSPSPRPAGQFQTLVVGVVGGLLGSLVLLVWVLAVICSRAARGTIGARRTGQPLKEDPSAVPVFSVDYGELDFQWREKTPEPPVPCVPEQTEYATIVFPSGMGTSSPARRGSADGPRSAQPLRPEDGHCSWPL

The assay addresses T1, PD-1/PD-L1 interaction (PE-labeled human PD-L1-Ig binding to Jurkat cell line over-expressing human PD-1) (Homo sapiens, UniProt Q15116).
T1 construct: expressed in transfected cells; host or cells: Jurkat
Kind of assay: Jurkat-PD-1 Cell Binding High-Content Screening Assay (CBA). Conditions: Jurkat cell line over-expressing human PD-1; PE-labeled PD-L1-Ig 20 nM final; read-out: Jurkat hPD1-PDL1 IC50. Type of assay: cell-based. A digest of the protocol:
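Human PD-L1-Ig carrying a covalent PE label on its Ig tag serves as the probe, applied at 20 nM final to compound-treated (2 h, 37° C) Jurkat-hPD-1 cells in medium with 10% fetal calf serum. After one hour, fixation and nuclear staining precede high-content image analysis.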
In the case of `Cc1cccc(C[C@@H]2NC(=O)[C@H](CC(=O)O)NC(=O)[C@H](Cc3ccc(OCC(=O)O)cc3)NC(=O)[C@H](Cc3ccc(F)cc3)NC(=O)CSC[C@@H](C(=O)N[C@@H](CCN)C(=O)NCCOCCOCC(=O)NCCOCCOCC(=O)NCCCCCCCCCCC(=O)O)NC(=O)[C@H](Cc3cnc[nH]3)NC(=O)[C@H](C(C)(C)O)NC(=O)[C@H](CC3CCCCC3)NC(=O)[C@H](CCN)NC(=O)[C@@H](CC(C)C)NC(=O)[C@H](CCCN)NC(=O)[C@H](Cc3ccc(C(=O)O)cc3)NC(=O)[C@H](Cc3ccc(-c4ccccc4)cc3)NC(=O)[C@H](Cc3ccc(C(=O)O)cc3)NC2=O)c1` [Compound 3767] ({CH2CO}-[Phe(4-F)]Y(Carboxymethyl)D[Phe(3-Me)][Phe(4-COOH)][Bip][Phe(4-COOH)][Orn][dL][Dab][Cha][Val(3-OH)]HC[Dab][AEEA][AEEA][Aun]-OH; thioether N-14), the IC50 came out at 9.6 nM. For the molecule `CC(C)C[C@H]1NC(=O)[C@H](CCCN)NC(=O)[C@H](CCCNC(N)=O)NC(=O)[C@H](Cc2ccc(-c3ccccc3)cc2)NC(=O)[C@H](C(C)C)NC(=O)[C@H](Cc2c[nH]c3ccccc23)NC(=O)[C@H](CC(=O)O)NC(=O)[C@H](Cc2ccc(OCC(=O)O)cc2)NC(=O)[C@H](CN)NC(=O)CSC[C@@H](C(=O)NCCOCCOCC(=O)N[C@@H](CCCCN)C(=O)NCCCCCCCCCCC(=O)O)NC(=O)[C@H](CCCNC(N)=O)NC(=O)[C@H](C(C)C)NC(=O)[C@H](CC2CCCCC2)NC(=O)[C@H](CCN)NC1=O` [Compound 3146] ({CH2CO}-[Dap]Y(Carboxymethyl)DWV[Bip][Cit][Orn][dL][Dab][Cha]V[Cit]C[AEEA]K[Aun]-OH; thioether N-14), the IC50 was determined as 7.8 nM. As to `Cc1cccc(C[C@@H]2NC(=O)[C@H](CC(=O)O)NC(=O)[C@H](Cc3ccc(OCC(=O)O)cc3)NC(=O)[C@H](CN)NC(=O)CSC[C@@H](C(=O)N[C@@H](CCN)C(=O)NCCOCCOCC(=O)NCCCCCCCCCCC(=O)O)NC(=O)[C@H](C(C)O)NC(=O)[C@H](Cc3ccc(O)cc3)NC(=O)[C@H](CC3CCCCC3)NC(=O)[C@H](CCN)NC(=O)[C@@H](CC(C)C)NC(=O)[C@H](CCCN)NC(=O)[C@H](C(C)C)NC(=O)[C@H](Cc3ccc(-c4ccccc4)cc3)NC(=O)[C@H](Cc3ccc(O)cc3)NC2=O)c1` (stereo partly drawn) [Compound 2573] ({CH2CO}-[Dap]Y(Carboxymethyl)D[Phe(3-Me)]Y[Bip]V[Orn][dL][Dab][Cha]Y[Thr(3ξ)]C[Dab][AEEA][Aun]-OH; thioether N-14), the IC50 was found to be 47.6 nM.

For `Cc1cccc(C[C@@H]2NC(=O)[C@H](CC(=O)O)NC(=O)[C@H](Cc3ccc(OCC(=O)O)cc3)NC(=O)[C@H](CN)NC(=O)CSC[C@@H](C(=O)N[C@@H](C)C(=O)N[C@@H](CC(=O)O)C(=O)NCCOCCOCC(=O)N[C@@H](CCC(=O)NCCOCCOCC(=O)NCCCCCCCCCCC(=O)O)C(=O)O)NC(=O)[C@H]([C@@H](C)O)NC(=O)[C@H](C(C)C)NC(=O)[C@H](CC3CCCCC3)NC(=O)[C@H](CCN)NC(=O)[C@@H](CC(C)C)NC(=O)[C@H](CCCN)NC(=O)[C@H](CCCNC(N)=O)NC(=O)[C@H](Cc3ccc(-c4ccccc4)cc3)NC(=O)[C@H](C(C)C)NC2=O)c1` [Compound 1014] ({CH2CO}-[Dap]Y(Carboxymethyl)D[Phe(3-Me)]V[Bip][Cit][Orn][dL][Dab][Cha]VTCAD[AEEA][γGlu][AEEA][Aun]-OH; thioether N-14), the IC50 was determined as 5.5 nM. As for `Cc1cccc(C[C@@H]2NC(=O)[C@H](CC(=O)O)NC(=O)[C@H](Cc3ccc(OCC(=O)O)cc3)NC(=O)[C@H](CN)NC(=O)CSC[C@@H](C(=O)N[C@@H](C)C(=O)N[C@@H](CC(=O)O)C(=O)NCCCCCCCCCCC(=O)O)NC(=O)[C@H]([C@@H](C)O)NC(=O)[C@H](C(C)C)NC(=O)[C@H](CC3CCCCC3)NC(=O)[C@H](CCN)NC(=O)[C@@H](CC(C)C)NC(=O)[C@H](CCCN)NC(=O)[C@H](CCC(=O)O)NC(=O)[C@H](Cc3ccc(-c4ccccc4)cc3)NC(=O)[C@H](C(C)C)NC2=O)c1` [Compound 1049] ({CH2CO}-[Dap]Y(Carboxymethyl)D[Phe(3-Me)]V[Bip]E[Orn][dL][Dab][Cha]VTCAD[Aun]-OH; thioether N-14), the figure is 15 nM.

Broadly, the IC50 is the midpoint of a concentration-inhibition curve.
